Columns and labels:
[1] = tested on: human iPS-derived sensory neurons (Nociceptors); test: Live calcium imaging (Fluo-4 AM) of Nociceptors on-chip after capsaicin irritation; type: cell-based; conditions: capsaicin 1 μM, sensory neurons in apical channel
Method: Irritation (as pain simulation) to sensory neurons on-chip was induced by capsaicin (1 μM in DMEM/F12 with 10% FBS, supplemented with BDNF, GDNF, NGF, NT-3 (25 ng/ml each) and Ascorbic Acid (200 μM)) in order to recapitulate the sensation of burning (heat) felt by humans exposed to capsaicin. Nociceptors responded to capsaicin, as shown by live imaging of calcium using Fluo-4 AM, see FIGS. 28C and 28D. Fluo-4 AM refers to a calcium sensitive fluorescent dye, loaded onto the sensory neurons. Intracellular calcium fluctuations were monitored over time using high-speed imaging. Acquisition protocols, for the example shown herein, consisted of 5-minute time-lapse sequences of Fluo-4 fluorescence. Alterations in fluorescence as a function of time were measured at a single wavelength (Fluo-4). Analysis and processing, as well as playback of the image sequences for visual inspection, was made using ImageJ/FIJI software. To visualize the spatial and temporal changes in, the raw sequences were processed to highlight changes in fluorescence intensity between frames. Regions of interest over the field of view were selected, and the mean pixel intensity at each frame was measured. The data was first plotted as fluorescence intensity versus and subsequently converted to a relative scale (ΔF/F baseline)

[2] = tested on: human iPS-derived sensory neurons (Nociceptors); test: Substance P release into apical channel effluent of Nociceptors-Chip; type: cell-based
Method: Chemical stimulation of Nociceptors with Capsaicin (e.g. 1 μM), perfused for 3 hours, was followed by effluent collected from the apical channel (neuronal). This Capsaicin treatment elicited the release of substance P, a pain neurotransmitter. […] This model was further developed, as described herein, successfully simulating the process of sensitization that leads to pathological pain by the addition of inflammatory mediators to endothelial media perfused through the vascular channel. As one example, 5 μM each of Prostaglandin E2, bradykinin, serotonin and histamine in Vascular Cell Basal Medium (ATCC® PCS-100-030™) with Microvascular Endothelial Cell Growth Kit-VEGF (ATCC® PCS-110-041™) was perfused through the vascular channel. In other words, this model is intended to simulate peripheral sensitization of Nociceptors. Capsaicin (200 nM) and inflammatory mediators (each 5 μM) were perfused for 3 hours, and the effluents were collected from the apical channel (neuronal). See, FIG. 30A for an exemplary schematic diagram. […] At the same time, inflammatory mediators, i.e. Prostaglandin E2, bradykinin, serotonin and histamine (each 5 μM in media), were added to the inlet of the basal channel. The effluent was collected from the outlet of the apical channel after 3 hours (t=3 h).

[3] = tested on: Human Dermal Microvascular Endothelial Cells (HMVEC-D); test: Vascular permeability, 3 kDa Dextran leakage from basal into apical channel of Nociceptors-Chip; type: cell-based; conditions: capsaicin 200 nM apical, simultaneously with inflammatory mediators (each 5 μM) basal, 3 hours
Method: In one embodiment, endothelial cells were seeded into the basal channel, e.g. Human Dermal Microvascular Endothelial Cells (HMVEC-D), i.e. Primary Dermal Microvascular Endothelial Cells; Normal, Human, Neonatal (HDMVECn) (e.g. ATCC® PCS-110-010™). However, it is not meant to limit the source of HMVEC, such that Primary Dermal Microvascular Endothelial Cells may be obtained from neonatal biopsies, e.g. foreskins. Prior to seeding, basal channels were coated with a thin rat collagen coating. Rat collagen was diluted in distillated water to obtain a final protein concentration at 150 μg/mL−1. The basal channel was coated by incubating the channel in collagen solution at 4° C. overnight. Unattached rat collagen was washed away with PBS, then culture medium was flowed in to cover the coated membrane to replace the PBS.
This model was further developed, as described herein, successfully simulating the process of sensitization that leads to pathological pain by the addition of inflammatory mediators to endothelial media perfused through the vascular channel. […]
Another readout is obtained by using Dextran (3 kDa) permeability, where Dextran is added to the basal channel then after 24 hours, effluent from the apical channel was collected for measuring the amount of Dextran that diffused through the endothelial barrier into the neuronal channel. […]

[4] = tested on: iPSC-derived human brain microvascular endothelial cells; test: Inflamed Brain-Chip: endothelial morphology (ZO-1) and Dextran leakage after TNF-α in vascular channel; type: cell-based
Method: In one embodiment to provide an innervated human brain chip having intact barrier function, induced pluripotent stem cells (iPSC)-derived cortical neurons, including populations of Glutamatergic neurons and GABAergic neurons, human primary astrocytes, and human primary pericytes were seeded into the neuronal channel (upper chamber), and iPSC-derived human brain microvascular endothelial cells in the vascular channel (lower chamber).
The vascular channel was directly stimulated the vascular channel at two concentrations of TNF-α.

[5] = tested on: astrocytes; test: Brain-Chip GFAP expression after TNF-α perfused into neuronal channel; type: cell-based, human; conditions: TNF-α 100 ng/ml perfused into neuronal channel; up to 24 hours after stimulation
Method: TNF-α (100 ng/ml) or vehicle was perfused into the neuronal channel.

[6] = tested on: endothelial cells; test: Real-time TEER measurement in BBB-chip; type: cell-based; conditions: BBB-chip under flow, after TNF-a challenge
From the text: TEER measures the resistance to pass current across one or more cell layers on a membrane. Specifically, this electrical resistance is a direct measurement of the resistance of the cell monolayer to the transport of ions. The measurement may be affected by the pore size and density of the membrane, but it aims to ascertain cell and/or tissue properties. The TEER value is considered a good measure of the integrity of a cell monolayer.
The barrier function of the same BBB-chip measured by flowing a fluorescent molecule on one side of the chip and measuring how much of the molecules crosses the endothelial cells, FIG. 23B (middle). The resolution of this measurement is limited by the time it takes for a sufficient sample to flow through the chip. A model of an exemplary TEER-Chip design FIG. 23C (right) utilizing electrodes oriented in a manner that allows electrical resistance of the cells on the membrane to be measured in real-time.

COc1cc(CNC(=O)CCCC/C=C/C(C)C)ccc1O [capsaicin, trans-8-methyl-N-vanillyl-6-nonenamide]
Nociceptor response by live imaging of calcium, change in fluorescence (ΔF/F) [1]: responded | Substance P released in the apical channel effluent ([2]; capsaicin 200 nM apical, with inflammatory mediators (Prostaglandin E2, bradykinin, serotonin, histamine, each 5 μM) basal, 3 hours): significant increase | Substance P released in the apical channel effluent ([2]; capsaicin 1 μM perfused through apical channel for 3 hours): significant increase | Vascular permeability (leakage of 3 kDa Dextran into the apical channel) [3]: significant increase

TNF-α
Percent leakage of Dextran into the apical channel (paracellular permeability) vs control ([4]; TNF-α 100 ng/ml and 1 ug/ml in vascular channel, 16 hours): significantly higher | Endothelial cell morphology (ZO-1 expression) ([4]; TNF-α in vascular channel for 16 hours, 100 ng/ml and 1 ug/ml): induces changes | GFAP expression (optical intensity of GFAP staining) [5]: significantly increases | Barrier function by real-time TEER [6]: abrupt drop

From patent publication US20210054323A1, “INNERVATED INTESTINE ON CHIP” (EMULATE, Inc., priority 2018, published 2021)
